Test results as given in patent publication US20250320213A1, “Nitrogen-Containing Heterocyclic Compounds” (Pfizer Inc., priority 2024, published 2025).
Where two headings read alike, the source gives them in different places.

Assays:
[1] = test system: CCL17 secretion in peripheral human whole blood; experiment: Human Whole Blood (HWB) CCL17 TR-FRET Assay (IL-13 stimulated CCL17 secretion); assay type: cell-based
How it was run: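 TR-FRET sandwich immunoassay (665/615 nm ratio) read CCL17 in serum from heparinized whole blood after 16 h RT detection. Blood was exposed to compound for 2 h at 37 °C, then to 10 ng/mL IL-13 (final) for 48 h. IC50 from 11-point, 3-fold titrations in duplicate.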

[2] = molecular target: T1, STAT6 (Homo sapiens, UniProt P42226); experiment: STAT6 Reporter Luciferase Assay (IL-13 stimulated HaCaT keratinocyte NanoLuc reporter cells); assay type: cell-based; settings: read-out: Reporter EC50
T1 construct: stably transfected HaCaT keratinocyte cell line, which expresses NanoLuc luciferase reporter gene under the transcriptional control of the STAT6 responsive promoter; endogenous in cells; host or cells: HaCaT keratinocyte reporter cell line (stably transfected with a NanoLuc reporter)
T1 sequence (P42226 1-847): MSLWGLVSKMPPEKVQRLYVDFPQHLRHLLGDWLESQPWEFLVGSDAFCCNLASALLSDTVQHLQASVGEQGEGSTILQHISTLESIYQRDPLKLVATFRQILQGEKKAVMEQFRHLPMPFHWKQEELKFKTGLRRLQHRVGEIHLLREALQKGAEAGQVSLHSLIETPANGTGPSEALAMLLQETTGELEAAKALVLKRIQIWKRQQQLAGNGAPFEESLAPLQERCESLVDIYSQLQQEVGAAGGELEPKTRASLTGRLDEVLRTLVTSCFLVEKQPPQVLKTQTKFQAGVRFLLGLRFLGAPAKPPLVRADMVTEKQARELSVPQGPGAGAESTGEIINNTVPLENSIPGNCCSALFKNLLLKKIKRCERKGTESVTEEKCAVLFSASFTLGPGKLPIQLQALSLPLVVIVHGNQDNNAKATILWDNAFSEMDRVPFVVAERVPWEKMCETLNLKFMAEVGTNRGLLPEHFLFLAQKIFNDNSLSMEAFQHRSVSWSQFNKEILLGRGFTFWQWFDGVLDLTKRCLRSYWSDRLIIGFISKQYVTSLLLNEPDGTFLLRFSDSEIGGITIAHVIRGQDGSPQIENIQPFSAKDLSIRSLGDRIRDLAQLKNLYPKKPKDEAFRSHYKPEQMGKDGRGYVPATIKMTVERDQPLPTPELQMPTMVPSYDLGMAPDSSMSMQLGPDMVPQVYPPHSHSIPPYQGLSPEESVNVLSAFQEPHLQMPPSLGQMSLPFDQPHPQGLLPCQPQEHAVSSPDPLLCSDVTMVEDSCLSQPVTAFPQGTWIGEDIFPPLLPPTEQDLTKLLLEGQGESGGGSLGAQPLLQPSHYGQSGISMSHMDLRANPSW
How it was run: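 Stably transfected HaCaT cells carrying NanoLuc under the STAT6-responsive IL-13Ra2 promoter were pre-treated with compound (11-point, 4-fold series, duplicate) for 2 h at 37 °C, then stimulated with 0.12 nM IL-13 for 4 h. Nano-Glo luminescence was read after 15 min.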

[3] = Homo sapiens, 48 h, inhibition of CCL17 secretion in human whole blood, 10 ng/mL IL13, 48 hours
[4] = STAT6 NanoLuc luciferase reporter, IL-13 stimulated HaCaT keratinocyte cells
[5] = human whole blood, IL-13 stimulated, 48 hours
[6] = IL-13 stimulated HaCaT STAT6 NanoLuc reporter cells
[7] = Homo sapiens, 48 h, human whole blood, IL-13 stimulated

For `CC(NC(=O)c1nn(C(C)C)c2c1CN(c1ccc(C(=O)N(C)C)cn1)CC2)c1ccc(NC(=O)N(C)C)cc1` (racemic) [Example 81, rac-(R)-5-(5-(dimethylcarbamoyl)pyridin-2-yl)-N-(1-(4-(3,3-dimethylureido)phenyl)ethyl)-1-isopropyl-4,5,6,7-tetrahydro-1H-pyrazolo[4,3-c]pyridine-3-carboxamide], the IC50 [1, 3] was 115 nM and the EC50 [2, 4] was 34 nM.
For “rel-(R or S)-5-(5-(dimethylcarbamoyl)pyridin-2-yl)-N-(4-(3,3-dimethylureido)benzyl)-1-methyl-7- [Example 390]”, the IC50 [1, 5] was 104 nM and the EC50 [2, 6] was 39 nM.
`CN(C)C(=O)Nc1ccc(CNC(=O)c2nn(C)c3c2CN(c2ccc(C(=O)N(C)C)cn2)CC3)cc1` [Example 14, 5-(5-(dimethylcarbamoyl)pyridin-2-yl)-N-(4-(3,3-dimethylureido)benzyl)-1-methyl-4,5,6,7-tetrahydro-1H-pyrazolo[4,3-c]pyridine-3-carboxamide] gave an IC50 [1, 3] of 260 nM and an EC50 [2, 4] of 29 nM.
Work on `CC(C)n1nc(C(=O)NCc2ccc(-c3ncc[nH]3)cc2)c2c1C[C@H](C)N(c1ncc(C(=O)N(C)C)cn1)C2` [Example 451, (S)-N-(4-(1H-imidazol-2-yl)benzyl)-5-(5-(dimethylcarbamoyl)pyrimidin-2-yl)-1-isopropyl-6-methyl-4,5,6,7-tetrahydro-1H-pyrazolo[4,3-c]pyridine-3-carboxamide] yielded an IC50 [1, 7] of 47 nM and an EC50 [2, 6] of 3 nM.
`CC(C)n1nc(C(=O)NCc2ccc(NC(=O)N(C)CC(F)F)cc2)c2c1CCN(c1ccc(C(=O)N(C)C)cn1)C2` [Example 189, N-(4-(3-(2,2-difluoroethyl)-3-methylureido)benzyl)-5-(5-(dimethylcarbamoyl)pyridin-2-yl)-1-isopropyl-4,5,6,7-tetrahydro-1H-pyrazolo[4,3-c]pyridine-3-carboxamide] gave an IC50 [1, 7] of 95 nM and an EC50 [2, 6] of 10 nM.
Work on `CC(C)n1nc(C(=O)NCc2ccc(-c3ncc[nH]3)cc2)c2c1C(C(F)(F)F)CN(c1ccc(C(=O)N(C)C)cn1)C2` (single isomer, unassigned) [Example 124, rel-(R or S)-N-(4-(1H-imidazol-2-yl)benzyl)-5-(5-(dimethylcarbamoyl)pyridin-2-yl)-1-isopropyl-7-(trifluoromethyl)-4,5,6,7-tetrahydro-1H-pyrazolo[4,3-c]pyridine-3-carboxamide] yielded an IC50 ([1]; inhibition of CCL17 secretion in human whole blood, 10 ng/mL IL13, 48 hours) of 5 nM and an EC50 [2, 4] of 0.3 nM.
`CC(C)n1nc(C(=O)NCc2ccc(NC(=O)N(C)C)cc2)c2c1CC(C(F)(F)F)N(c1ccc(C(=O)N(C)C)cn1)C2` (single isomer, unassigned) [Example 277, rel-(R or S)-5-(5-(dimethylcarbamoyl)pyridin-2-yl)-N-(4-(3,3-dimethylureido)benzyl)-1-isopropyl-6-(trifluoromethyl)-4,5,6,7-tetrahydro-1H-pyrazolo[4,3-c]pyridine-3-carboxamide] was tested, and the IC50 [1, 5] was 109 nM and the EC50 [2, 6] was 10 nM.
`CC(C)n1nc(C(=O)NCc2ccc(NC(=O)N3CCOCC3)cc2)c2c1CCN(c1ccc(C(=O)N(C)C)cn1)C2` [Example 173, N-(4-((5-(5-(dimethylcarbamoyl)pyridin-2-yl)-1-isopropyl-4,5,6,7-tetrahydro-1H-pyrazolo[4,3-c]pyridine-3-carboxamido)methyl)phenyl)morpholine-4-carboxamide] showed an IC50 [1, 3] of 72 nM and an EC50 [2, 4] of 11 nM.
With `CCn1nc(C(=O)NCc2ccc(NC(=O)N(C)C)cc2)c2c1[C@@H](C)CN(c1ncc(C(=O)N3Cc4cccnc4C3)cn1)C2` [Example 495, (S)-5-(5-(6,7-dihydro-5H-pyrrolo[3,4-b]pyridine-6-carbonyl)pyrimidin-2-yl)-N-(4-(3,3-dimethylureido)benzyl)-1-ethyl-7-methyl-4,5,6,7-tetrahydro-1H-pyrazolo[4,3-c]pyridine-3-carboxamide] the IC50 [1, 7] was 34 nM and the EC50 [2, 6] was 1 nM.
With `CNC(=O)Cc1ccc(N2CCc3c(c(C(=O)NCc4ccc(NC(=O)N(C)C)cc4)nn3C(C)C)C2)nc1` [Example 337, N-(4-(3,3-dimethylureido)benzyl)-1-isopropyl-5-(5-(2-(methylamino)-2-oxoethyl)pyridin-2-yl)-4,5,6,7-tetrahydro-1H-pyrazolo[4,3-c]pyridine-3-carboxamide] the IC50 [1, 7] was greater than 20500 nM and the EC50 [2, 6] was 5370 nM.
Compound `CCC1Cc2c(c(C(=O)NCc3ccc(NC(=O)N(C)C)cc3)nn2C)CN1c1ccc(C(=O)N(C)C)cn1` (single isomer, unassigned) [Example 269, rel-(R or S)-5-(5-(dimethylcarbamoyl)pyridin-2-yl)-N-(4-(3,3-dimethylureido)benzyl)-6-ethyl-1-methyl-4,5,6,7-tetrahydro-1H-pyrazolo[4,3-c]pyridine-3-carboxamide] has an IC50 [1, 5] of 834 nM and an EC50 [2, 6] of 87 nM.
With `CCn1nc(C(=O)NCc2ccc(NC(=O)N(C)C)nc2)c2c1[C@@H](C)CN(c1ncc(C(=O)N(C)C)cn1)C2` [Example 324, (S)-5-(5-(dimethylcarbamoyl)pyrimidin-2-yl)-N-((6-(3,3-dimethylureido)pyridin-3-yl)methyl)-1-ethyl-7-methyl-4,5,6,7-tetrahydro-1H-pyrazolo[4,3-c]pyridine-3-carboxamide] the IC50 [1, 7] was 18 nM and the EC50 [2, 6] was 5 nM.
`CC(C)n1nc(C(=O)NCc2ccc(C(N)=O)cc2)c2c1[C@@H](C)CN(c1ncc(N3CCCC3=O)cn1)C2` [Example 489, (S)-N-(4-carbamoylbenzyl)-1-isopropyl-7-methyl-5-(5-(2-oxopyrrolidin-1-yl)pyrimidin-2-yl)-4,5,6,7-tetrahydro-1H-pyrazolo[4,3-c]pyridine-3-carboxamide] showed an IC50 [1, 7] of 17 nM and an EC50 [2, 6] of 18 nM.
With `CC(C)n1nc(C(=O)NCc2ccc(NC(=O)N(C)C)cc2)c2c1CCN(c1ncc(C(=O)N(C)C)cn1)[C@H]2C` (single isomer, unassigned) [Example 509] the IC50 [1, 7] was 8170 nM and the EC50 [2, 6] was 3320 nM.
In the case of `CC(C)n1nc(C(=O)NCc2ccc(NC(=O)N3CCC4(CC3)CNCCO4)cc2)c2c1[C@@H](C)CN(c1ccc(C(=O)N(C)C)cc1)C2` [Example 628, (S)-N-(4-((5-(4-(dimethylcarbamoyl)phenyl)-1-isopropyl-7-methyl-4,5,6,7-tetrahydro-1H-pyrazolo[4,3-c]pyridine-3-carboxamido)methyl)phenyl)-1-oxa-4,9-diazaspiro[5.5]undecane-9-carboxamide], the IC50 ([1]; Homo sapiens, 48 h, human whole blood, 10 ng/mL IL13, 48 hours) is reported as 4 nM and the EC50 [2, 6] is reported as 1 nM.
Compound `CN(C)C(=O)Nc1ccc(CNC(=O)c2nn(C)c3c2CN(c2ccc(C(=O)N(C)C)cn2)CC32CC2)cc1` [Example 106, 5′-(5-(dimethylcarbamoyl)pyridin-2-yl)-N-(4-(3,3-dimethylureido)benzyl)-1′-methyl-1′,4′,5′,6′-tetrahydrospiro[cyclopropane-1,7′-pyrazolo[4,3-c]pyridine]-3′-carboxamide] has an IC50 [1, 3] of 49 nM and an EC50 [2, 4] of 8 nM.
`CN(C)C(=O)Nc1ccc(CNC(=O)c2nn(C)c3c2CN(c2ccc(-c4nccn4C)cn2)CC3)cc1` [Example 12, N-(4-(3,3-Dimethylureido)benzyl)-1-methyl-5-(5-(1-methyl-1H-imidazol-2-yl)pyridin-2-yl)-4,5,6,7-tetrahydro-1H-pyrazolo[4,3-c]pyridine-3-carboxamide] was tested, and the IC50 [1, 3] was 93 nM and the EC50 [2, 4] was 16 nM.
For `CN(C)C(=O)Nc1ccc(CNC(=O)c2nn(C3CCOC3)c3c2CN(c2ccc(C(=O)N(C)C)cn2)CC3)cc1` (single isomer, unassigned) [Example 190, rel-(R or S)-5-(5-(dimethylcarbamoyl)pyridin-2-yl)-N-(4-(3,3-dimethylureido)benzyl)-1-(tetrahydrofuran-3-yl)-4,5,6,7-tetrahydro-1H-pyrazolo[4,3-c]pyridine-3-carboxamide], the IC50 [1, 5] was 38 nM and the EC50 [2, 6] was 20 nM.
`CC(C)n1nc(C(=O)NCc2ccc(NC(=O)N(C)C)cc2)c2c1[C@H](C)[C@@H](C)N(c1ncc(C(=O)N(C)C)cn1)C2` (single isomer, unassigned) [Example 448] was tested, and the IC50 [1, 7] was greater than 30000 nM and the EC50 [2, 6] was 13 nM.
